Series [1] deals with HCT-116. As to the kind of experiment: Antiproliferative activity against CDC37 knockout human HCT-116 cells assessed as inhibition of cell proliferation incubated for 72 hrs by MTT assay. It is filed as functional, cell-based. As to conditions: HCT-116, 72 h.
The target of series [2] is Heat shock protein HSP90 (Homo sapiens) (UniProt P07900+P08238). As to the kind of experiment: Induction of thermal stabilization of HSP90 in human HCT-116 cells at 10 uM at 53 to 55 degreeC by CETSA based Western blot analysis. It is filed as cell-based.
In series [3] the test system is HCT-116. The series can be described thus: Antiproliferative activity against human HCT-116 cells assessed as inhibition of cell proliferation incubated for 72 hrs by MTT assay. It is filed as functional, cell-based. As to conditions: HCT-116, 72 h.
Series [4] relates to HT-1080. The series can be described thus: Antiproliferative activity against human HT-1080 cells assessed as inhibition of cell proliferation incubated for 72 hrs by MTT assay. Format: functional, cell-based. The note with it: HT-1080, 72 h.
A short description of series [5]: Selectivity ratio of IC50 for antiproliferative activity against CDC37 knockout human HCT-116 cells to IC50 for antiproliferative activity against human HCT-116 cells. Format: functional.
Series [6] deals with Heat shock protein HSP 90-beta/Hsp90 co-chaperone Cdc37 (Homo sapiens) (UniProt P08238+Q16543). As to the kind of experiment: Inhibition of His-tagged HSP90(unknown origin)/GST-tagged CDC37 (unknown origin) protein-protein interaction at 100 uM preincubated with HSP90 for 1 hrs followed by CDC37 addition and measured after 1 hrs by HTRF assay relative to control. Format: protein-complex assay.

The nature of series [7]: Permeability of compound at pH 7.4 incubated for 4 hrs by PAMPA based UV analysis. Format: ADME. The note with it: read-out: permeability.
In series [8] the test system is HT-29. As to the kind of experiment: Antiproliferative activity against human HT-29 cells assessed as inhibition of cell proliferation incubated for 72 hrs by MTT assay. It is filed as functional, cell-based. The note with it: HT-29, 72 h.
Series [9] concerns MCF7. As to the kind of experiment: Antiproliferative activity against human MCF7 cells assessed as inhibition of cell proliferation incubated for 72 hrs by MTT assay. Format: functional, cell-based. The note with it: MCF7, 72 h.
In series [10] the test system is SK-BR-3. The series can be described thus: Antiproliferative activity against human SK-BR-3 cells assessed as inhibition of cell proliferation incubated for 72 hrs by MTT assay. It is filed as functional, cell-based. As to conditions: SK-BR-3, 72 h.
For series [11], the system named is CT26. The series can be described thus: Antiproliferative activity against mouse CT26 cells assessed as inhibition of cell proliferation incubated for 72 hrs by MTT assay. Format: functional, cell-based. The note with it: CT26, 72 h.

pIC50: −log10 of the molar value. Activity calls are given as the source filed them. The calls are words filed in the database; no cut-off is given here. Some results are limits rather than exact numbers.

As for `O=S(=O)(CCc1cn(-c2ccccc2)nc1-c1cccnc1)c1ccccc1`, the pIC50 in series [1] and in [3] was less than 4.30 throughout. Further, the outcome in series [2] was inactive.
`Cc1ccc(-c2nn(-c3ccccc3)cc2/C=C/C(=O)N2CCCCC2C(N)=O)cc1C` (stereo not drawn): the pIC50 in [1] is 4.60; in series [4] it was 4.83; in series [8] it was 4.99; in [9], 4.91; in series [10], 4.86; in series [11], 5.03. For the same compound, in [3], the negative logarithm of the IC50 (pIC50) was 5.11. Moreover, the “Ratio IC50” value in [5] was found to be 3.2. In series [6], this compound yielded an inhibition of 62.9%. The Papp at 4 h in series [7] was 23 ×10⁻⁶ cm/s.

(Values after ChEMBL document CHEMBL6177982, “Structural Optimization of Pyrazole Compounds as Hsp90 Regulators with Enhanced Antitumor Activity” (J Med Chem, 2025).)
